Results reported in US20200223839A1, “FLUORO-CONTAINING COMPOUNDS, USE AND PREPARATION THEREOF” (JIANGSU YINGKEBEITA YIYAOKEJI CO. LTD, priority 2017, published 2020).

How the values were obtained:
BT474 = experiment: Cell culture and cytotoxicity assay (CTG), BT474; type: cell-based; details: Homo sapiens, BT-474, BT474, exposure 96 hours
Protocol: The assayed compounds each was dissolved in DMSO with a final concentration of 10 mM or 40 mM and stored at −20° C. Tumor cell lines A549 (7,000 cells/well), BT474 (12,000 cells/well), MDA-MB-468 (12,000 cells/well), and HCC1937 (6,000 cells/well) were seeded on 96-well plates. And the cells were pre-incubated at 37° C./5% CO2 for 24 hours. The cells were exposed to different concentrations of the assay compounds (from 400 μM to 782 nM, from 200 μM to 391 nM, from 100 μM to 196 nM, and from 50 μM to 98 nM) for the following time:
After incubation, 100 μL from each well was discarded and CTG base (Proega, G7571, 50 μL) was added and the mixture was agitated for 2 minutes. The mixtures were stored in a dark room for 10 minutes and the viability was analyzed with Multiskan microplate reader.

MCF-7 = experiment: Cytotoxicity assay by the CTG method, MCF-7; type: cell-based; details: Homo sapiens, MCF7, MCF-7, Breast cancer, 72 h
Protocol: (§1) The corresponding cells were harvested from flask into cell culture medium and the cell number were counted. The cells were diluted with culture medium to the desired density and 40 μL of cell suspension was added into each well of 384-well cell culture plate as designated. The plates were covered with lid and placed in room temperature for 30 minutes without shaking and then were transferred plates into 37° C. 5% CO2 incubator overnight for cell attachment.
(§2) Compound preparation and treatment: Test compounds were received or dissolved at 30 mM stock solution and control compound Staurosporine was stored as 10 mM and 1 mM concentration. 45 uL of stock solution was transferred to a 384 pp-plate. 3 fold, 10-point dilution were performed via transferring 15 uL compound into 30 μL DMSO by using TECAN (EVO200) liquid handler. The plates were spun at room temperature at 1,000 RPM for 1 minute and shaken at a plate shaker for 2 minutes. […]
(§3) The plate from incubators were placed and equilibrated at room temperature for 15 minutes. […] 40 μL of CellTiter-Glo reagent were transferred into each well to be detected (at 1:1 to culture medium). Then the plates were placed at room temperature for 30 min followed by reading on EnSpire.
(§4) The inhibition activity was calculated following the formula below: […]
(§5) The IC50 were calculated by fitting the Curve using Xlfit (v5.3.1.3): […]

MDA-MB-468 = experiment: Cytotoxicity assay by the CTG method, MDA-MB-468; type: cell-based; details: Homo sapiens, MDA-MB-468, Breast cancer, 72 h
Protocol: as §1, §2, §3, §4, §5

T-47D = experiment: Cytotoxicity assay by the CTG method, T-47D; type: cell-based; details: Homo sapiens, T47D, Breast cancer, 72 h
Protocol: as §1, §2, §3, §4, §5

MDA-MB-453 = experiment: Cytotoxicity assay by the CTG method, MDA-MB-453; type: cell-based; details: Homo sapiens, MDA-MB-453, Breast cancer, 72 h
Protocol: as §1, §2, §3, §4, §5

HCT116 = experiment: Cytotoxicity assay by the CTG method, HCT116; type: cell-based; details: Homo sapiens, HCT-116, HCT116, Colon cancer, 72 h
Protocol: as §1, §2, §3, §4, §5

LoVo = experiment: Cytotoxicity assay by the CTG method, LoVo; type: cell-based; details: Homo sapiens, Colon cancer, 72 h
Protocol: as §1, §2, §3, §4, §5

786-O = experiment: Cytotoxicity assay by the CTG method, 786-O; type: cell-based; details: Homo sapiens, 786-0, Kidney cancer, 72 h
Protocol: as §1, §2, §3, §4, §5

MV-4-11 = experiment: Cytotoxicity assay by the CTG method, MV-4-11; type: cell-based; details: Homo sapiens, MV4-11, MV-4-11, Leukemia, 72 h
Protocol: as §1, §2, §3, §4, §5

Hep3B = experiment: Cytotoxicity assay by the CTG method, Hep3B; type: cell-based; details: Homo sapiens, Liver cancer, 72 h
Protocol: as §1, §2, §3, §4, §5

A549 = experiment: Cytotoxicity assay by the CTG method, A549; type: cell-based; details: Homo sapiens, A549, Lung cancer, 72 h
Protocol: as §1, §2, §3, §4, §5

OVCAR-3 = experiment: Cytotoxicity assay by the CTG method, OVCAR-3; type: cell-based; details: Homo sapiens, OVCAR-3, Ovarian cancer, 72 h
Protocol: as §1, §2, §3, §4, §5

PC-3 = experiment: Cytotoxicity assay by the CTG method, PC-3; type: cell-based; details: Homo sapiens, PC-3, Prostate cancer, 72 h
Protocol: as §1, §2, §3, §4, §5

LNCaP = experiment: Cytotoxicity assay by the CTG method, LNCaP; type: cell-based; details: Homo sapiens, Prostate cancer, 72 h
Protocol: as §1, §2, §3, §4, §5

U87MG = experiment: Cytotoxicity assay by the CTG method, U87MG; type: cell-based; details: Homo sapiens, U-87 MG, Glioblastoma, 72 h
Protocol: as §1, §2, §3, §4, §5

[1] = In vivo mouse model, MDA-MB-453, mice weights; details: MDA-MB-453 mouse model
Excerpt: MDA-MB-453 cells (human breast cancer) were also studied in a mouse model. […] FIG. 7.

Question: With `Cc1ccc(S(=O)(=O)Nc2nc3ccccc3nc2Nc2ccc3nsnc3c2)cc1F` [Compound 4f, N-[3-(benzo[1,2,5]thiadiazol-5-ylamino)-quinoxalin-2-yl]-3-fluoro-4-methyl-benzenesulfonamide] as the compound, how does the IC50 (BT474) read?
Answer: 12500 to 25000 nM

Question: What about the IC50 (MCF-7) of the same compound?
Answer: 5.19 µM

Question: What about the IC50 (MDA-MB-468) of the same compound?
Answer: 2.49 µM

Question: What about the IC50 (T-47D) of the same compound?
Answer: 5.74 µM

Question: And the IC50 (MDA-MB-453)?
Answer: 1.5 µM

Question: And the IC50 (HCT116)?
Answer: 5.44 µM

Question: What about the IC50 (LoVo) of the same compound?
Answer: 21.7 µM

Question: What about the IC50 (786-O) of the same compound?
Answer: 5.74 µM

Question: And the IC50 (MV-4-11)?
Answer: 6.8 µM

Question: What about the IC50 (Hep3B) of the same compound?
Answer: 3.97 µM

Question: And the IC50 (A549)?
Answer: 8.33 µM

Question: And the IC50 (OVCAR-3)?
Answer: 6.68 µM

Question: And the IC50 (PC-3)?
Answer: 6.05 µM

Question: What about the IC50 (LNCaP) of the same compound?
Answer: 3.2 µM

Question: And the IC50 (U87MG)?
Answer: 18 µM

Question: And the weight changes ([1]; FIG. 7, 50 mg/Kg)?
Answer: no difference in weight changes

Question: What about the weight changes ([1]; FIG. 7, 100 mg/Kg) of the same compound?
Answer: no difference in weight changes
